Results reported in patent US10300060B2, “Trk-inhibiting compound” (ONO PHARMACEUTICAL CO., LTD., priority 2013, dated 2019).

How the values were obtained:
KDR = KDR (Homo sapiens (Human), UniProt P35968); experiment: Enzyme-inhibiting activity test of kinases other than Trk (selectivity experiment): KDR; assay type: biochemical; settings: concentration of 3 μM; read-out: Inhibition rate (%) KDR
Description: (§1) A test substance (the present compound) was dissolved in dimethylsulfoxide to prepare a 100-fold concentration of the test concentration, 3 μM. The solution was further diluted to 25-fold with an assay buffer (20 mM HEPES, 0.01% Triton X-100, 2 mM DTT, pH 7.5) to obtain a test substance solution. In a similar manner a positive control substance solution was prepared with a positive control substance.
(§2) A 4-times concentration solution (5 μL) of the test substance prepared with the assay buffer, 5 μL of a 4-times concentration solution of substrate/ATP/metal (Mg) and 10 μL of a 2-times concentration solution of kinase were mixed in a well of a polypropylene 384-well plate and allowed to react at room temperature for 1 hour. The reaction was terminated by adding 60 μL of a Termination Buffer (QuickScout Screening Assist MSA; Carna Biosciences). The substrate peptide and the phosphorylated peptide in the reaction solution were separated and quantified. The kinase reaction was assessed from the product ratio (P/(P+S)) calculated from the height (S) of the peak of the substrate peptide and the height (P) of the peak of the phosphorylated peptide. Other kinases used in the kinase selectivity experiments were, for example, b-Raf and KDR. The following Table 3 indicates substrates, substrate concentrations, ATP concentrations and positive control substances used in respective kinase enzyme inhibition activity tests.

b-Raf = b-Raf (Homo sapiens (Human), UniProt P15056); experiment: Enzyme-inhibiting activity test of kinases other than Trk (selectivity experiment): b-Raf; assay type: biochemical; settings: concentration of 3 μM; read-out: Inhibition rate (%) b-Raf
b-Raf, sequence (P15056 whole entry, species assumed): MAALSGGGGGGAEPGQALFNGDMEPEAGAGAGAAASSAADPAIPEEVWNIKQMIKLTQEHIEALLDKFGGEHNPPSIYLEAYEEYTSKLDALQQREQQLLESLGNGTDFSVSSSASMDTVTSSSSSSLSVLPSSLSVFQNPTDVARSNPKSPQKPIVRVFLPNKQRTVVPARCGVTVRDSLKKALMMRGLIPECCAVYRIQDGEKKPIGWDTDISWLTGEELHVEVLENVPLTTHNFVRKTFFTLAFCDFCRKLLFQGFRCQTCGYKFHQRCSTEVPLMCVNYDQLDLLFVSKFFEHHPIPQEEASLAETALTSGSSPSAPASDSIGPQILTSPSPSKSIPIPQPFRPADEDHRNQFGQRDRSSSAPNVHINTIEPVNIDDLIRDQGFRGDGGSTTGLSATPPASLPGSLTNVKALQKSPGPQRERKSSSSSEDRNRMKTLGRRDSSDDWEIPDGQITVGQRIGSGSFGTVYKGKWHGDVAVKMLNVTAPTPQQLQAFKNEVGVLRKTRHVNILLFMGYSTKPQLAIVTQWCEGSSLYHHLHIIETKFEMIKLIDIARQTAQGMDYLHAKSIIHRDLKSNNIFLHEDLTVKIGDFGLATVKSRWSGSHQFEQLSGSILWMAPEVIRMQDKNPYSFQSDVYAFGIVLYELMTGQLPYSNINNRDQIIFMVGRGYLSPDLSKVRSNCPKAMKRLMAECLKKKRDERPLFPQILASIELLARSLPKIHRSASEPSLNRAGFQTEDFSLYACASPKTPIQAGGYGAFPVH
Description: as §1, §2

[1] = tested on: sodium monoiodoacetate-induced model rats; experiment: Analgesic effect on sodium monoiodoacetate-induced model rats; assay type: in vivo, rat; settings: MIA-induced model rats, test substance orally twice a day day 14 to 23, day 24 3 hours before measurement, right hind limb weight load ratio
[2] = experiment with morphine as positive control

KDR, sequence (P35968 20-1356, species assumed): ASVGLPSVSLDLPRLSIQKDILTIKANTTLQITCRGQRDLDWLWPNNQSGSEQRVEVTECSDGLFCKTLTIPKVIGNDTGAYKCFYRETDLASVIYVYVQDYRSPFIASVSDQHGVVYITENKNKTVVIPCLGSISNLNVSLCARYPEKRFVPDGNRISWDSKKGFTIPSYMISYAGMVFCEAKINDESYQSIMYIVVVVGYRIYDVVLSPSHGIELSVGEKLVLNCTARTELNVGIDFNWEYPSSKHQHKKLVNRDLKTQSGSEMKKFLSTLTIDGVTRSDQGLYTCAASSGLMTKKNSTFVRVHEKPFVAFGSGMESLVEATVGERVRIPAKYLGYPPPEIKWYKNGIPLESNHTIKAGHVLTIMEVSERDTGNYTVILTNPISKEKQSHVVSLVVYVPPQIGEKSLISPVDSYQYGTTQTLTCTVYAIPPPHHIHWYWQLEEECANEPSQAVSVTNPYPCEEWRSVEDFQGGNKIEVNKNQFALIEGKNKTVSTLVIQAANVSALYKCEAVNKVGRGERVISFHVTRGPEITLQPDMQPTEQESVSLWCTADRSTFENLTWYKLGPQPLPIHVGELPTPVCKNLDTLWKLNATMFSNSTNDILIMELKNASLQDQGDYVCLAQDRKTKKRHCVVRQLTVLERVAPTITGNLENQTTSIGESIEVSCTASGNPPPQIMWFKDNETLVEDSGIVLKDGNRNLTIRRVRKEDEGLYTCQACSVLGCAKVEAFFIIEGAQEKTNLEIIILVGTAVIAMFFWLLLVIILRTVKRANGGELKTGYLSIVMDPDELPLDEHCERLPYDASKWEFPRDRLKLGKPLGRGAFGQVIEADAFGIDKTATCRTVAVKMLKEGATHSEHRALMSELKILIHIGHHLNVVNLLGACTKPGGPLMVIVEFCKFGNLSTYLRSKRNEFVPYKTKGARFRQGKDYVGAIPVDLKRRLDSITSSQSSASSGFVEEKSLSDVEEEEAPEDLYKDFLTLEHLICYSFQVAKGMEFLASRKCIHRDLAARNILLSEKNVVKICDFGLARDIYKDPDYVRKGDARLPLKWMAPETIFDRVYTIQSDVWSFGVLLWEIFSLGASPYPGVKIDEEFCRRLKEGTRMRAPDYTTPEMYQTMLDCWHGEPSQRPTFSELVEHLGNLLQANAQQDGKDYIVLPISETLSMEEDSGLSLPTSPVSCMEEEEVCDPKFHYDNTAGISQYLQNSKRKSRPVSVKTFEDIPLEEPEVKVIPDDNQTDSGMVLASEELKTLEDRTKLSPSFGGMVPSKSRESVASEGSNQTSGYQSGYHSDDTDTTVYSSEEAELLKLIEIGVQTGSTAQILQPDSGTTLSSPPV

Structure (SMILES) | inhibition at 3 µM (KDR) [%] | inhibition at 3 µM (b-Raf) [%] | Percent improvement (%) ([1]; experiment with tramadol as positive control) | Percent improvement (%) [1, 2] [%]
Nc1ncc(Cl)cc1-c1ccc(Oc2ncc(NC(=O)Nc3cc(C(F)(F)F)ccc3-n3cccn3)cn2)cc1 [Example 7, 1-(2-(1H-pyrazol-1-yl)-5-(trifluoromethyl)phenyl)-3-(2-(4-(2-amino-5-chloropyridin-3-yl)phenoxy)pyrimidin-5-yl)urea] | 0 | 40 | 61 | –
Nc1ncc(Cl)cc1-c1ccc(Oc2ncc(NC(=O)Nc3cc(C(F)(F)F)ccc3-c3ccccc3)cn2)cc1 [Example 15-55, 1-{2-[4-(2-amino-5-chloro-3-pyridinyl)phenoxy]-5-pyrimidinyl}-3-[4-(trifluoromethyl)-2-biphenylyl]urea] | 0 | 30 | – | 62
Nc1ncc(C(F)(F)F)cc1-c1ccc(Oc2ncc(NC(=O)Nc3cc(C(F)(F)F)ccc3-n3cc(Cl)cn3)cn2)cc1 [Example 15-87, 1-(2-{4-[2-amino-5-(trifluoromethyl)-3-pyridinyl]phenoxyl}-5-pyrimidinyl)-3-[2-(4-chloro-1H-pyrazol-1-yl)-5-(trifluoromethyl)phenyl]urea] | 0 | 34 | – | 57
CS(=O)(=O)c1ccc(C(F)(F)F)cc1NC(=O)Nc1cnc(Oc2ccc(-c3cc(C(F)(F)F)cnc3N)cc2)nc1 [Example 15-98, 1-(2-{4-[2-amino-5-(trifluoromethyl)-3-pyridinyl]phenoxyl}-5-pyrimidinyl)-3-[2-(methylsulfonyl)-5-(trifluoromethyl)phenyl]urea] | 8 | 23 | – | 57
Nc1ncc(Cl)cc1-c1ccc(Oc2ncc(NC(=O)Nc3ccc(C(F)(F)F)cc3C(F)(F)F)cn2)cc1 [Example 15-77, 1-{2-[4-(2-amino-5-chloro-3-pyridinyl)phenoxy]-5-pyrimidinyl}-3-[2,4-bis(trifluoromethyl)phenyl]urea] | 0 | 32 | – | 55
Nc1ncc(Cl)cc1-c1ccc(Oc2ncc(NC(=O)Nc3cc(C(F)(F)F)ccc3-n3cc(Cl)cn3)cn2)cc1 [Example 15-63, 1-{2-[4-(2-amino-5-chloro-3-pyridinyl)phenoxy]-5-pyrimidinyl}-3-[2-(4-chloro-1H-pyrazol-1-yl)-5-(trifluoromethyl)phenyl]urea] | 0 | 43 | – | 53

More lines, main results first:

inhibition at 3 µM (KDR) [%] | inhibition at 3 µM (b-Raf) [%] | Structure (SMILES) | Percent improvement (%) ([1]; experiment with tramadol as positive control) | Percent improvement (%) [1, 2] [%]
9 | 49 | CN(C)c1ccn2ncc(-c3ccc(Oc4ncc(NC(=O)Nc5cc(C(F)(F)F)ccc5-c5ccnn5C)cn4)cc3)c2n1 [Example 21-51, 1-(2-{4-[5-(dimethylamino)pyrazolo[1,5-a]pyrimidin-3-yl]phenoxyl}-5-pyrimidinyl)-3-[2-(1-methyl-1H-pyrazol-5-yl)-5-(trifluoromethyl)phenyl]urea] | – | 68
16 | 50 | CN(C)c1ccn2ncc(-c3ccc(Oc4ncc(NC(=O)Nc5cc(C(F)(F)F)ccc5-c5cccnc5)cn4)cc3)c2n1 [Example 21-37] | – | 67
0 | 21 | Cc1cccc(-c2ccc(C(F)(F)F)cc2NC(=O)Nc2cnc(Oc3ccc(-c4cnn5ccc(N(C)C)nc45)cc3)nc2)c1 [Example 21-73, 1-(2-{4-[5-(dimethylamino)pyrazolo[1,5-a]pyrimidin-3-yl]phenoxyl}-5-pyrimidinyl)-3-[3′-methyl-4-(trifluoromethyl)-2-biphenylyl]urea] | – | 62
